According to publication PMC7462607 (eLife, 2020):
Values joined by “and” are separate entries in the source; they are usually repeats but may differ in a detail not shown here. Equal entries are not always repeated.

Columns and labels:
[1] = tested on: BRCA1, BRCA2, ATR, ERCC4 mRNA; assay: RT-qPCR of BRCA1, BRCA2, ATR and ERCC4 mRNAs; assay type: cell-based, Homo sapiens
Description: Total RNA was extracted from HQ461-treated A549 cells using TRNzol (Tiangen, Beijing, China). Reverse transcription of mRNA into cDNA was performed using the 5X All-In-One RT mastermix kit with AccuRT genomic DNA removal kit (Abm, Richmond, Canada), and qPCR was performed using TB Green Premix Ex Taq (Tli RNaseH Plus) (Takara, Otsu, Japan) with the CFX96 Real-Time PCR Detection System (Bio-Rad, Hercules, USA). GAPDH was used for normalization. Primer sequences are as follows: GAPDH-forward: 5’-[…]-3’; GAPDH-reverse: 5’-[…]-3’; BRCA1-forward: 5’-[…]-3’; BRCA1-reverse: 5’-[…]-3’; BRCA2-forward: 5’-[…]-3’; BRCA2-reverse: 5’-[…]-3’; ATR-forward: 5’-[…]-3’; ATR-reverse: 5’-[…]-3’; ERCC4-forward: 5’-[…]-3’; ERCC4- reverse: 5’-[…]-3’. Each experiment was performed with three technical replicates.

[2] = target: T1, DDB1ΔBPB (Homo sapiens, UniProt Q16531, DEL400-704); assay: Differential Scanning Fluorimetry (DSF), DDB1ΔBPB; assay type: binding; conditions: 50 µM HQ461
T1 construct: Strep-tag (N); 8xHis (N); made in house; host or cells: Sf9
Description: CDK12KD/CCNKΔC (WT or G731E/R) and DDB1ΔBPB were diluted to 5 μM with DSF assay buffer (50 mM HEPES pH 7.5, 300 mM NaCl, 0.5 mM TCEP). 50 µM HQ461 or 10 µM HBx was added to diluted proteins (final DMSO concentration 0.25%). Twenty µL of protein-compound mix was aliquoted per qPCR tube (Labtidebiotech, Shanghai, China, P01-0803E) followed by the addition of 5 µL of 1:400 diluted SYPRO Orange (Sigma-Aldrich, MO, USA, S5692). After incubation on ice for 20 min, fluorescence measurements were performed using a Bio-Rad CFX96 Realtime PCR instrument. During the DSF experiment, the temperature was increased from 10°C to 95°C at an increment of 0.5 °C with equilibration time of 10 s at each temperature prior to measurement. Tm was defined as the temperature corresponding to the maximum value of the first derivative of fluorescence transition.

[3] = tested on: ARE-luc2P activity (NRF2); assay: ARE-luc2P reporter assay (NRF2 activity); assay type: cell-based; conditions: Homo sapiens; A549 ARE-luc2P reporter cells
Description: A549 cells were transiently transfected with the plasmid pGL4.37 (Promega, Madison, USA) and selected with 500 µg/ml of hygromycin to obtain a stable cell line harboring the ARE-luc2P reporter. TK-luc2P was cloned into the pLVX-IRE-Puro backbone by replacing its CMV promoter and multiple cloning site with HSV-TK promoter fused to luc2P. The resulting pLVX-TK-luc2P-IRES-Puro plasmid was packaged into lentivirus to transduce A549 cells. Stable cell lines were obtained by selection of transduced cells with 2 µg/ml of puromycin.
A screening library with 65,790 small molecules (Life Chemicals, Niagara-on-the-Lake, Canada) were used in primary screening. The screening procedures were as follows. Seven hundred A549 ARE-luc2P cells in 50 µL of medium were plated per well in 384-well flat clear bottom white polystyrene TC-treated microplates (Corning, Corning, USA) and allowed to attach to plates overnight. […] Twelve hours later, ARE-luc2P activities were measured with Bright-Glo luciferase assay system (Promega, Madison, USA) following vendor instructions. Luminescence was measured on a EnVision multimode plate reader (PerkinElmer, Waltham, USA). Luminescence data on each plate was Z-score normalized using the equation Z=x−μ/σ , where x is the luminescence value of a well, µ is the mean and σ is the standard deviation of all values on one plate. […]

[4] = target: T2, CDK12 kinase domain/CCNK-3xHA (Homo sapiens, UniProt Q9NYV4); assay: Co-expression of 3xFLAG-CDK12 kinase domain with CCNK-3xHA; assay type: cell-based; conditions: 293T, HQ461 8 hr; not with G731E or G731R
T2 construct: ORFs encoding residues 715–1052 of CDK12 and residues 693–1030 of CDK13; expressed in transfected cells; host or cells: 293T
Description: ORFs encoding residues 715–1052 of CDK12 and residues 693–1030 of CDK13 were cloned into a pCDNA3.1-N-3xFLAG vector. For setting up cells for co-transfection, 0.6 million 293 T cells were seeded per well in 6-well tissue-culture plates and allowed to attach to plates overnight. These cells were then transfected with 50 ng of pCDNA3.1-3xFLAG-CDK12/13 kinase domain, 50 ng of pCDNA3.1-CCNK-3xHA, and 400 ng of the empty pCDNA3.1 vector. Twenty-four hours post transfection, cells were treated with HQ461 for 8 hr, and lysates were collected for western blotting with anti-FLAG and anti-HA antibodies.

[5] = tested on: A549 cells; assay: Cell viability assay (CellTiter-Glo), A549; assay type: cell-based, Homo sapiens; conditions: for CellTiter-Glo (ATP): A549, raw signal, Rep 1-3
Description: Seven hundred A549 cells or 1,000 HCT-116 cells in 50 µL of medium were plated per well in 384-well flat clear bottom white polystyrene TC-treated microplates (Corning, Corning, USA). After overnight attachment, cells were dosed with a serial dilution of HQ461 with a D300e digital dispenser (Tecan, Männedorf, Switzerland). Cell survival was measured 72 hr later using CellTiter-Glo luminescent cell viability assay kit (Promega, Madison, USA) following vendor instructions. Luminescence was recorded by EnVison multimode plate reader (PerkinElmer, Waltham, USA). IC50 was determined with GraphPad Prism using baseline correction (by normalizing to DMSO control), the asymmetric (five parameter) equation, and least squares fit.

T2 sequence (Q9NYV4 715-1052): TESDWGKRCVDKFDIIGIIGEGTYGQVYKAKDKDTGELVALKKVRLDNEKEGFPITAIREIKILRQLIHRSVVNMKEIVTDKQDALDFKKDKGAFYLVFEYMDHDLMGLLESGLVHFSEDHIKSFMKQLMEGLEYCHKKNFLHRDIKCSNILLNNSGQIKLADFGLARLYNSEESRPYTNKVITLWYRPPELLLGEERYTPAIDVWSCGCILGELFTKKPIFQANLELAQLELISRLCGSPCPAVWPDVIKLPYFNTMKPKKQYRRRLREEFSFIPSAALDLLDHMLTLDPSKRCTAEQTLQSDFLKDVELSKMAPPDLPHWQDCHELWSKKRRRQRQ
T2 sequence (O75909 whole entry partner, the tested form may be a part): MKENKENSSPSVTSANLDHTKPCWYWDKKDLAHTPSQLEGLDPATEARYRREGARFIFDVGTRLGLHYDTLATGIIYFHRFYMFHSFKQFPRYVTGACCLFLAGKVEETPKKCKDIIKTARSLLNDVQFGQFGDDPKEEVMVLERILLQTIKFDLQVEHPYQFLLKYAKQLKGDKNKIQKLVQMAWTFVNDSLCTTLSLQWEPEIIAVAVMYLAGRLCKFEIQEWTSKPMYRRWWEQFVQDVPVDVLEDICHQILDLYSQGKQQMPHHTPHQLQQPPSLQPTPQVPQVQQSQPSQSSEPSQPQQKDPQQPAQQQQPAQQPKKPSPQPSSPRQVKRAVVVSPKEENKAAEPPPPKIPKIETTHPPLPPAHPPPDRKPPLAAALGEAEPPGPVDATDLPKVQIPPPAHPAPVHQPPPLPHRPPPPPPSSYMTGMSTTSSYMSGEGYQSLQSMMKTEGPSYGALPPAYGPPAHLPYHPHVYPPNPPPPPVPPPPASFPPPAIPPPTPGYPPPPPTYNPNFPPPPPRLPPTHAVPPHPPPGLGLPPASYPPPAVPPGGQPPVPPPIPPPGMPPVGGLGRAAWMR
T2 sequence (Q16531 2-1140 partner limits assumed): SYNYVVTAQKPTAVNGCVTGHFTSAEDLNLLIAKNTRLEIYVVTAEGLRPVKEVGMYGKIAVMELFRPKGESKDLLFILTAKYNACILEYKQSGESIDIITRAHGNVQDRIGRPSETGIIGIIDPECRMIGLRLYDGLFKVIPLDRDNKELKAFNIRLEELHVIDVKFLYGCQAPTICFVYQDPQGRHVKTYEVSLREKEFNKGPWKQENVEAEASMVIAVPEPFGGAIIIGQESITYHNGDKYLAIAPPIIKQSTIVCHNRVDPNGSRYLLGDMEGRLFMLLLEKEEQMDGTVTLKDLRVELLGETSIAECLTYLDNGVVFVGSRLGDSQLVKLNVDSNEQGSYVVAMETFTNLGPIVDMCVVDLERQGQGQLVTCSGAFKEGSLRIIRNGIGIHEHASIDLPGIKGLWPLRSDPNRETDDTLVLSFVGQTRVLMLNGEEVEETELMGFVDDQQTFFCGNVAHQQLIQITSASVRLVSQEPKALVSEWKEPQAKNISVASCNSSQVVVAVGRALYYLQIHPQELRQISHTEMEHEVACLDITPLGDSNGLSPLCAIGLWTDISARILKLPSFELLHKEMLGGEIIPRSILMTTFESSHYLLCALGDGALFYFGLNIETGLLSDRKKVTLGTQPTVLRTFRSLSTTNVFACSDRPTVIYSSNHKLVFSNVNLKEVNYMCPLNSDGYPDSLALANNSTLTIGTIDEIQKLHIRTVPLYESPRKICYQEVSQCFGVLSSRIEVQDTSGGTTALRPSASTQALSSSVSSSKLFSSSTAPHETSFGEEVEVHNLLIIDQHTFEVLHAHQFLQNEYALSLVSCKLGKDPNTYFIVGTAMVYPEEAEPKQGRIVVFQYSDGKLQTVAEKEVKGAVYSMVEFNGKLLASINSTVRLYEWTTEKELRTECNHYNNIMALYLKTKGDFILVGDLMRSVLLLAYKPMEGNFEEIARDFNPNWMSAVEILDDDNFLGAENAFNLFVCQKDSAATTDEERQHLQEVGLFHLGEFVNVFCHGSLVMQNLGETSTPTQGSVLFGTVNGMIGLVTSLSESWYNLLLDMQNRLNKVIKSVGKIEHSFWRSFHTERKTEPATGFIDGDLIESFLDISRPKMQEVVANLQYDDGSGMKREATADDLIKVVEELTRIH
T1 sequence (Q16531 with tags, fused parts or gaps DEL400-704): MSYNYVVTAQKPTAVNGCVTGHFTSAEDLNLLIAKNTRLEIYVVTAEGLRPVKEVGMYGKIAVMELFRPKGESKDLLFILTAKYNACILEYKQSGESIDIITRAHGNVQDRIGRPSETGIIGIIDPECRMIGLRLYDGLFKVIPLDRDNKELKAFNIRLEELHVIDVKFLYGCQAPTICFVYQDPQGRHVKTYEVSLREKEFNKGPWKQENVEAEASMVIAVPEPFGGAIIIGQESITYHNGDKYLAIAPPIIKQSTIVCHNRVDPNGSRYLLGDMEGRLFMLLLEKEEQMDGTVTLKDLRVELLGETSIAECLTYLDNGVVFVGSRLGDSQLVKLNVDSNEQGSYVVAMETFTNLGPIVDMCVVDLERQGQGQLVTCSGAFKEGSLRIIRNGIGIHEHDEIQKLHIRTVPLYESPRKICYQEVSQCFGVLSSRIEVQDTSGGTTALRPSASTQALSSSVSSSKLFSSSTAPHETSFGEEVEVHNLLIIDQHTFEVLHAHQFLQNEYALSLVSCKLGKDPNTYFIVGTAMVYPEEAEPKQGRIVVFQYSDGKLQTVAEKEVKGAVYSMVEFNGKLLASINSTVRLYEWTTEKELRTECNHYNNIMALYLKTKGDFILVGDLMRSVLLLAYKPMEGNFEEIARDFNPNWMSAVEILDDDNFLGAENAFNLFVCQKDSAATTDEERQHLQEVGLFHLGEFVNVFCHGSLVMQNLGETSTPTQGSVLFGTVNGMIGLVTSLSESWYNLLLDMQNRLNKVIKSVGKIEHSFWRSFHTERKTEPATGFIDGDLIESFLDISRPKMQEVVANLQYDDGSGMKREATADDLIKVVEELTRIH

Cc1cccc(Nc2nc(CC(=O)Nc3ncc(C)s3)cs2)n1 [HQ461, 2-(2-((6-methylpyridin-2-yl)amino)thiazol-4-yl)-N-(5-methylthiazol-2-yl)acetamide]
inhibitory effect on the expression of DDR genes ([1]; A549 with CDK12 G731E or G731R mutation): abolished | mRNA levels of BRCA1, BRCA2, ATR and ERCC4 ([1]; parental A549, 10 µM HQ461 for 16 hr): reductions in the mRNA levels of all four tested DDR genes | thermal stability of DDB1ΔBPB [2]: did not change the thermal stability | IC50 [3]: 3.6 µM | CCNK destabilization with co-expressed wild-type CDK12 kinase domain [4]: sufficient for mediating HQ461-dependent destabilization of CCNK | CellTiter-Glo (ATP) ([5]; HQ461 1.6e-6 M): 1.74E+06 and 1.39E+06 and 1.50E+06 | CellTiter-Glo (ATP) ([5]; HQ461 3.12e-6 M): 360450 and 439670 and 341920 | CellTiter-Glo (ATP) ([5]; HQ461 6.31e-6 M): 173530 and 234990 and 251210 | CellTiter-Glo (ATP) ([5]; HQ461 1.25e-5 M): 146290 and 177880 and 172140 | CellTiter-Glo (ATP) ([5]; HQ461 2.51e-5 M): 65570 and 94080 and 92090 | CellTiter-Glo (ATP) ([5]; HQ461 2.00E-07 M): 4.81E+06 and 4.79E+06 and 4.78E+06 | CellTiter-Glo (ATP) ([5]; HQ461 3.96E-07 M): 3.92E+06 and 3.86E+06 and 3.80E+06 | CellTiter-Glo (ATP) ([5]; HQ461 4.80E-08 M): 4.68E+06 and 4.34E+06 and 4.06E+06 | CellTiter-Glo (ATP) ([5]; HQ461 7.99E-07 M): 3.98E+06 and 3.60E+06 and 3.16E+06 | CellTiter-Glo (ATP) ([5]; HQ461 9.99E-08 M): 3.91E+06 and 3.89E+06 and 3.96E+06 | IC50 ([5]; Homo sapiens, A549, 72 hr, CellTiter-Glo): 1300 nM
